The values below come from PMC8713471, “Insights Into the Inhibition of MOX-1 β-Lactamase by S02030, a Boronic Acid Transition State Inhibitor” (Frontiers in Microbiology, 2021).

The target in assay [1] is T1, MOX-1 β-lactamase (Klebsiella pneumoniae, UniProt Q51578). Nature of the assay: Inhibition of cephalothin hydrolysis by purified MOX-1, […] min pre-incubation, UV/VIS (Ki and IC50). It is filed as biochemical. Set-up: gene blaMOX-1; purified MOX-1, (His)8 tag removed with thrombin.
Assay [2] deals with T1, MOX-1 β-lactamase. Nature of the assay: X-ray crystal structure at […] Å; also Ki and IC50 with purified enzyme (cephalothin hydrolysis). It is filed as biochemical. Set-up: gene blaMOX-1; N-terminal (His)8-tagged MOX-1 for crystals (model Asp6-Arg305 and Gln310-Gly362); tag removed with thrombin for kinetics.

T1 sequence (Q51578 entry or part of it): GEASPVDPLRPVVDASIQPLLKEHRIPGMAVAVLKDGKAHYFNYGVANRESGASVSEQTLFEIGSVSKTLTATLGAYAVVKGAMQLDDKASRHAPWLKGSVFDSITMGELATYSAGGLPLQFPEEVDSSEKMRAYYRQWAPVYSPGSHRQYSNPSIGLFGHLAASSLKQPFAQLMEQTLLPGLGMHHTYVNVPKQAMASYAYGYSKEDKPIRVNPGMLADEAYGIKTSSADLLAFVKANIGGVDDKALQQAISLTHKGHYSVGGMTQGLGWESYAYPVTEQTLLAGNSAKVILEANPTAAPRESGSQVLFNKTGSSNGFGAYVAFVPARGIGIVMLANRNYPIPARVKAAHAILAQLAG

The compound `C[C@H]1[C@H](NC(=O)/C(=N\OC(C)(C)C(=O)O)c2csc(N)n2)C(=O)N1S(=O)(=O)O` [Aztreonam] had a Ki on MOX-1 β-lactamase [1] of 10 ± 1 nM.

Consider `O=C(Cc1cccs1)N[C@@H](Cn1cc(C(=O)O)nn1)B(O)O` [S02030], for which affinity on MOX-1 β-lactamase [2] was put at a Ki of 560 ± 30 nM.
